Test in all cases: NCI tumour cell line growth inhibition, 48 h
Test [1] relates to MOLT-4 leukemia.
In test [2] the test system is OVCAR-3 ovarian.
The test system of test [3] is ACHN renal.
Test [4] deals with SF-539 CNS.
The test system of test [5] is RXF 393 renal.
The test system of test [6] is COLO 205 colon.
The test system of test [7] is CCRF-CEM leukemia.
Test [8] deals with NCI-H522 lung.
Test [9] deals with UACC-257 melanoma.
Test [10] has as its system SR leukemia.

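Protocol summary: plate cells (96-well), add compound at 5 concentrations, incubate 48 h, interpolate endpoints linearly. Here, GI50 denotes the concentration required for 50% inhibition of growth. TGI is the concentration that stops growth completely.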

Here are results for nine compounds from PubChem BioAssay (NCI).

As for `NC(=O)c1oc([N+](=O)[O-])c(-c2ccccc2)c1-c1ccccc1`, the TGI in test [1] was 96.6 µM; in [2], 22.7 µM; in test [3], 82 µM; in test [4] it was 38.1 µM; in test [5], above 100 µM; in [6], 42.1 µM. Also, the TGI in [7] is 38.9 µM; in test [8] it was 31.5 µM; in [9], 34.7 µM; in test [10], 34.2 µM.
As for `COc1ccc(-c2nnc(SCC(=O)Nc3ccc(/C(C)=N\O)cc3)n2-c2ccccc2)cc1OC`, the GI50 in test [1] is above 100 µM; in test [2], 7.87 µM; in [3] it was 8.08 µM; in test [4] it was 4.77 µM; in [5], 2.56 µM; in test [6] it was above 100 µM. For the same compound, the GI50 is above 100 µM in test [7], 21.4 µM in test [8], above 100 µM in test [9] and above 100 µM in test [10]. The TGI in [1] is above 100 µM; in test [2], above 100 µM; in test [3], above 100 µM; in test [4], 38.9 µM; in [5] it was 7.11 µM; in [6] it was above 100 µM. The TGI in [7], in test [8], in test [9] and in test [10] was above 100 µM throughout.
For `CC(CN1CCN(C)CC1)CN1c2ccccc2Sc2ccc(C(F)(F)F)cc21` (centres undefined), the GI50 in [1] was 2.05 µM; in test [2] it was 2.04 µM; in test [3] it was 1.67 µM; in test [4] it was 1.67 µM; in test [5] it was 1.64 µM; in [6], 1.89 µM. Moreover, the GI50 was 2.6 µM in test [7], 1.79 µM in [8], 1.89 µM in [9] and 2.01 µM in [10]. The TGI in test [1] was 4.77 µM; in [2] it was 4.16 µM; in [3], 3.27 µM; in test [4], 3.59 µM; in [5] it was 3.03 µM; in test [6], 3.65 µM. The TGI in test [7] was 6.74 µM; in test [8], 3.37 µM; in test [9] it was 3.81 µM; in [10], 5.32 µM.
In the case of `COc1ccn2c(C(C)=O)cc(C(=O)c3ccc4c(c3)Sc3ccccc3N4)c2c1`, the GI50 in [1] is 0.155 µM; in test [2], 0.0801 µM; in test [3], 0.145 µM; in test [4] it was 0.0654 µM; in test [5], 0.228 µM; in test [6], 0.0724 µM. Besides, the GI50 is 0.135 µM in [7], 0.0321 µM in test [8], above 30.6 µM in [9] and 0.0567 µM in [10]. The TGI in [1] is above 100 µM; in test [2], 0.206 µM; in test [3], above 100 µM; in [4], 0.206 µM; in test [5], above 100 µM; in test [6], 0.183 µM. The TGI was above 100 µM in test [7], 0.248 µM in test [8], above 100 µM in [9] and above 100 µM in [10].
Consider `O=Cc1cn(Cc2cccc(Cl)c2)c2ccccc12`, for which the GI50 in test [1] is 6.69 µM; in test [2], 2.7 µM; in test [3], 12.9 µM; in test [4], 14.7 µM; in test [6], 0.355 µM; in test [7], 9.99 µM. For the same compound, the GI50 in test [8] was 20.3 µM; in test [9] it was 1.05 µM; in [10] it was 23.9 µM. The TGI in [1] is 31.8 µM; in [2] it was 16.6 µM; in test [3], 26.8 µM; in test [4], 28 µM; in test [5], above 33 µM; in test [6], 14 µM. The TGI in test [7] was 50.3 µM; in test [8], 45.7 µM; in test [9], 3.63 µM; in test [10], 55.7 µM.
With `NNC(=O)CCC(=O)Nc1cc(Cl)c(Cl)cc1Cl`, the TGI in test [1], in test [2], in test [3], in test [4], in [5] and in test [6] was above 100 µM each time. Moreover, the TGI in test [7], in [8], in [9] and in [10] was above 100 µM each time.
On to `C=C(C)[C@@H]1CC[C@]2(C(=O)NCCNCCNCCN)CC[C@]3(C)[C@H](CC[C@@H]4[C@@]5(C)CC[C@H](O)C(C)(C)[C@@H]5CC[C@]43C)[C@@H]12`, for which the GI50 was 11.5 µM in test [1]; 12.2 µM in test [2]; 12 µM in test [3]; 11.1 µM in [4]; 13.2 µM in test [5]; 15.9 µM in test [6]. The GI50 was 4.55 µM in test [7], 10.3 µM in [8], 15.1 µM in test [9] and 6.76 µM in test [10]. Besides, the TGI was above 100 µM in test [1]; 25.7 µM in test [2]; 27.3 µM in test [3]; 23.7 µM in test [4]; 27.2 µM in test [5]; 34.6 µM in [6]. In addition, the TGI in [7] is 78.2 µM; in test [8], 25.4 µM; in test [9], 33.1 µM; in [10], above 100 µM.
With `Cc1nc2sc(C(=O)Nc3cccc4ccccc34)c(N)c2cc1C(=O)/C=C/c1ccccc1`, the GI50 in [1] was 0.251 µM; in [2], 0.181 µM; in [3], 0.304 µM; in test [4] it was 0.265 µM; in test [5], 0.203 µM; in [6] it was 0.957 µM. Moreover, the GI50 in [7] is 0.178 µM; in test [8] it was 0.215 µM; in test [9], 5.09 µM; in [10], 0.164 µM. Moreover, the TGI in test [1] is above 28.4 µM; in test [2], 0.593 µM; in test [3], 1.25 µM; in test [4], 1.16 µM; in test [5] it was 0.776 µM; in test [6], 2.64 µM. The TGI in [7] was above 24.9 µM; in [8], 2.11 µM; in test [9], above 30.3 µM; in test [10], above 10.1 µM.
As to `O=C1OC(CC(=O)c2ccc(Cl)cc2Cl)C(Cl)=C1Cl` (centres undefined), the TGI was 66.7 µM in test [1]; above 100 µM in test [2]; above 56.9 µM in [3]; 44.9 µM in test [4]; 36.3 µM in test [5]; 52.6 µM in [6]. Moreover, the TGI was above 72.7 µM in test [7], 34.7 µM in [8], above 100 µM in test [9] and 70.4 µM in test [10].
